Assay [1] concerns the target mGluR5 (allosteric site, [3H]MPEP) (Homo sapiens, UniProt P41594). In words: [3H]MPEP radioligand filtration binding assay on membrane homogenates. The conditions noted are these: 5 nM [3H]MPEP; Ki from IC50 by Cheng and Prusoff equation. The method, then:
Binding assays were performed as described in [J. A. O'Brien et al. Mol. Pharmacol., 2003, 64, 731-740] with slight modifications. Briefly, after thawing, the membrane homogenates were resuspended in 50 mM Tris-HCl, 0.9% NaCl binding buffer at pH 7.4 to a final assay concentration of 40 μg protein/well for [^3H]2-methyl-6-phenylethynyl-pyridine ([^3H] MPEP) (American Radiolabeled Chemicals, Inc., St. Louis, Mo.) filtration binding. Incubations included 5 nM [^3H] MPEP, membranes and either buffer or varying concentrations of compound. Samples were incubated for 60 min at room temperature with shaking. Non-specific binding was defined with 10 μM MPEP. After incubation, samples were filtered over a GF/C filter (presoaked in 0.25% polyethyleneimine (PEI)) and then washed 4 times using a Tomtec® Harvester 96® Mach III cell harvester (Tomtec, Hamden, Conn.) with 0.5 mL ice-cold 50 mM Tris-HCl (pH 7.4).
IC50 values were derived from the inhibition curve and Ki values were calculated according to the Cheng and Prusoff equation of Ki=IC50/(1+[L]/Kd) described in [Y. Cheng and W. H. Prusoff Biochem. Pharmacol. 1973, 22, 3099-3108] where [L] is the concentration of radioligand and Kd is its dissociation constant at the receptor, derived from the saturation isotherm.

Assay [2] concerns the target T1, rat metabotropic glutamate receptor 5 (rmGluR5) (Rattus norvegicus, UniProt P31424).
T1 construct: expressed in transfected cells
The experiment in a line: Calcium mobilization (FLIPR) assay for negative allosteric modulation, EC80 glutamate, rmGluR5 in HEK 293. In kind it is cell-based. The note with it: HEK293; rmGluR5, inhibition of EC80 glutamate response; read-out: FLIPR maximum inhibition. The procedure, abridged:
(§1)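 Stably transfected HEK 293 cells, Fluo-4-loaded, stimulated with EC80 glutamate plus test compound in HBSS/20 mM HEPES pH 7.4 with probenecid; FLIPR fluorescence read over 3 min at room temperature. Basal-subtracted maximum fluorescence change fitted by Hill equation; negative modulation seen as concentration-dependent inhibition of the EC80 response.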

In assay [3] the test system is male CD1 mice. The experiment in a line: Mouse marble burying (mMB) assay. It is filed as in vivo. The note with it: 30 mpk (sc), FIG. 1. The text has this:
More specifically for the mMB testing, adult, male CD1 mice (Charles River Laboratories (Kingston, N.Y.)), weighing 25 to 30 g, were used. All animals were group-housed in a standard colony room with a 12:12 light/dark cycle (lights on at 6:00 am) for at least one week prior to testing. Food and water were provided ad libitum. Animals were weighed, tail marked, and randomly assigned to treatment groups before testing.
For each test, sixty minutes after the injection of vehicle or test compound, or 30 min after injection of the positive control, buspirone, mice were individually placed into test cages containing 1.5 in of Aspen bedding (PWI brand) and two rows of 10 marbles (20 marbles per test cage total). Filter tops were used to cover each test cage. Thirty minutes later, mice were removed from test cages and returned to their home cages. The number of fully visible marbles (less than ⅔ covered with bedding) were counted and subtracted from 20 to arrive at the number of marbles buried. Twelve mice were tested per group.
Testing included multiple tests with each test performed to evaluate buspirone hydrochloride (BUS; Sigma Aldrich) (positive control) and/or a compound of formula (I). […] Doses were measured in mg drug (salt form) per kg body weight. Data was analyzed using one-way ANOVA with post-hoc Dunnett's test.

Assay [4] has as its system Male Rj: Wistar (Hans) rats. The experiment in a line: Vogel Conflict Test (punished drinking). It is filed as in vivo. The conditions noted are these: rat. The procedure: The “Vogel Conflict Test” as described by Vogel et al. [Psychopharmacologia, 1971, 21, 1-7] was used to detect anxiolytic activity of a compound of formula (I) because anxiolytics increase punished drinking. In the test, rats were deprived of water for approximately 48 hours and were then placed individually into a transparent Plexiglas® enclosure (15×32×34 cm) with a floor consisting of stainless steel bars (0.4 cm) spaced 1 cm apart. The back wall of the enclosure was made of opaque Plexiglas® thereby concealing the observer from the experimental animal. In the center of the opposite wall, 5 cm above the floor, a metal water spout protruded into the cage and was connected to one pole of a shock generator (Apelex: Type 011346). The other pole of the shock generator was connected to the metal grid floor.
The rat was left to explore until it found the water spout. Then, every time it drank, it received a slight electric shock (1.7 mA, 1 s) 2 seconds after it started lapping. The number of punished drinks was counted during a 3 minute test. The test was performed blind with 10 rats per group. Testing included multiple tests using reference compounds and a compound of formula (I) that were prepared and administered as described below in the LES test. Male Rj: Wistar (Hans) rats as described therein were used after acclimatization conditions were achieved. Data was analyzed by comparing treated groups with appropriate controls using unpaired Student's t tests.

The target of assay [5] is T2, human metabotropic glutamate receptor 5 (hmGluR5) (Homo sapiens, UniProt P41594).
T2 construct: expressed in transfected cells
T2 sequence (P41594 21-1212): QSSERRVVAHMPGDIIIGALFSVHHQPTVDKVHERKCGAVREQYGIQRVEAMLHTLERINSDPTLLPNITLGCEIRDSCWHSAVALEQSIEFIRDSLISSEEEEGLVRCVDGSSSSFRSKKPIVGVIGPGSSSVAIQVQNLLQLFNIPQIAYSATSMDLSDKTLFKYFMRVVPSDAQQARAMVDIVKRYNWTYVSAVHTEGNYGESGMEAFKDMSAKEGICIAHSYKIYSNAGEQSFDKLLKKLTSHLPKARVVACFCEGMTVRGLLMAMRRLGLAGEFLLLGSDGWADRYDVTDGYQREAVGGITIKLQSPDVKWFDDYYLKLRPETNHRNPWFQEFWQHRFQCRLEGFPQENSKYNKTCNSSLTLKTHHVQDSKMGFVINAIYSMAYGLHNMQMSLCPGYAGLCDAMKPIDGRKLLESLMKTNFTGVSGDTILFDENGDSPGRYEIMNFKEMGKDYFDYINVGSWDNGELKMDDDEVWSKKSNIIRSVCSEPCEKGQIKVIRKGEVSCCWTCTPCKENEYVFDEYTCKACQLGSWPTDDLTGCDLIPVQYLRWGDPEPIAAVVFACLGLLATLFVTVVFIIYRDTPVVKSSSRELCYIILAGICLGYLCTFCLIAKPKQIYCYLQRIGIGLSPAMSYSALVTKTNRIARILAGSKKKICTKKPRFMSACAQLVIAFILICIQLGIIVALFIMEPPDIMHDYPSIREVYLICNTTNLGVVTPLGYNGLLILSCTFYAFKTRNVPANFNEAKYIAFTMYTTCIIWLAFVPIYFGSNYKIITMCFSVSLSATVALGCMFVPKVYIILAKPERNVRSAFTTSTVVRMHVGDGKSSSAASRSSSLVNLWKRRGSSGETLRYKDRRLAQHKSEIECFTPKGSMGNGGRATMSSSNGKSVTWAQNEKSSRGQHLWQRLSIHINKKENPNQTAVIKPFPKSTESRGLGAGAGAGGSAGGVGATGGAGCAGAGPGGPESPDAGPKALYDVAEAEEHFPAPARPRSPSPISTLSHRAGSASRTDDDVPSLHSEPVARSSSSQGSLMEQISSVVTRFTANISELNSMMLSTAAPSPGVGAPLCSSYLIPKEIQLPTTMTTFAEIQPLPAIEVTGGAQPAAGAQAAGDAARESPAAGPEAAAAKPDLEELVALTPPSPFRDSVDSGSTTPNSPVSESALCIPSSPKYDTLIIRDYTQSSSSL
In words: Calcium mobilization (FLIPR) assay for negative allosteric modulation, EC80 glutamate, hmGluR5 in HEK 293. It is filed as cell-based. The note with it: HEK293; hmGluR5, inhibition of EC80 glutamate response; read-out: FLIPR maximum inhibition. The procedure, abridged: as §1
On the technique in general: Calcium flux is commonly read through the fluorescence of an indicator in the cells.

Assay [6] deals with C57BL/6NTac mice. The conditions noted are these: three weeks treatment, cited from earlier work.

The values below come from patent US9359297B2, “Spirolactam derivatives and uses of same” (H. Lundbeck A/S, priority 2009, dated 2016).

Each structure is given as a SMILES string. Read-outs that look alike come from different tables or passages of the source.

T1 sequence (P31424 21-1203): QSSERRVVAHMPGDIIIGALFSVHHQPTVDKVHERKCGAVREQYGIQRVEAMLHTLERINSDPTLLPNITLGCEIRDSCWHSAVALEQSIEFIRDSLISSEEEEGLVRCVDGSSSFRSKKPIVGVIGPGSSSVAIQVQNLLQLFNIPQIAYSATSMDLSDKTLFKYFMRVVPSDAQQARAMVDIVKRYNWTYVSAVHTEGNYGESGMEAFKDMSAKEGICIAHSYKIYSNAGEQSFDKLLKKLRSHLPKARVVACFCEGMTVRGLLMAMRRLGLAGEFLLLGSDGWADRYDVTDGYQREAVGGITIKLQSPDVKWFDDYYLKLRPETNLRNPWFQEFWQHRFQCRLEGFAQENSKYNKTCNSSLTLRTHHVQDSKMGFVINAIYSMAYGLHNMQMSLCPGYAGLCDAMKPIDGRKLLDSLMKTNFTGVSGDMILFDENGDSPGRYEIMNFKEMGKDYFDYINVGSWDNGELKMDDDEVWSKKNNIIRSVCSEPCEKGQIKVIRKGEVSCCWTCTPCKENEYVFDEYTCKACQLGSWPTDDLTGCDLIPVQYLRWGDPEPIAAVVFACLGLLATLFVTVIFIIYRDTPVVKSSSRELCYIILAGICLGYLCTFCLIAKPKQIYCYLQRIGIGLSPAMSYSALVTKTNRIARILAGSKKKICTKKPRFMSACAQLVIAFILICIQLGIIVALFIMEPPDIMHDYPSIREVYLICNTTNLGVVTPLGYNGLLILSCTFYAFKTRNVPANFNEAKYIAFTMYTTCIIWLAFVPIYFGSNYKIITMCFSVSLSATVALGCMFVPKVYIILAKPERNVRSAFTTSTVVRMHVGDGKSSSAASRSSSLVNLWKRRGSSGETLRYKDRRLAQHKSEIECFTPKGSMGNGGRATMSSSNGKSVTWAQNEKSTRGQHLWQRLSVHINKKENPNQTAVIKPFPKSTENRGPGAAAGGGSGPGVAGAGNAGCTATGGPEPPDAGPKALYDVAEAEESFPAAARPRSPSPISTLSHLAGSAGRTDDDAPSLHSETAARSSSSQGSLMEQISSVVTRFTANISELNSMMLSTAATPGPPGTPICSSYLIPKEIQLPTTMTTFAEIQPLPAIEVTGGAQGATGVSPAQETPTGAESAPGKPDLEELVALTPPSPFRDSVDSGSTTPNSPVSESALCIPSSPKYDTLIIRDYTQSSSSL
Chain of mGluR5 (allosteric site, [3H]MPEP) (P41594 21-1212): as the sequence (P41594 21-1212) above

In general, Ki refers to a measure of affinity in units of concentration, obtained from inhibition or displacement. Low readings indicate a stronger hold on the target, high ones a looser hold on the target. In the case of `Cc1cccc(C(=O)N[C@H]2CCC[C@]3(CCN(c4cccc(C)n4)C3=O)C2)n1` (relative stereo) [Example 23, cis-6-Methyl-pyridine-2-carboxylic acid [2-(6-methyl-pyridin-2-yl)-1-oxo-2-aza-spiro[4.5]dec-7-yl]-amide], the Ki in assay [1] is 190 nM. Also, the Emax in assay [2] is 81 to 99%.
In assay [1], `O=C(N[C@@H]1CCC[C@@]2(CCN(c3cccc(Cl)c3)C2=O)C1)c1ccccn1` (single isomer, unassigned) [Example 5] gave a Ki of 95 nM. Further, the Emax in assay [2] lay in the range of 81 to 99%. Also, the “in vivo anxiolytic effect in mouse marble burying” value in assay [3] is “statistically significant in vivo anxiolytic effect”.
In turn, `O=C(N[C@@H]1CCC[C@@]2(CCN(c3cccc(F)c3)C2=O)C1)c1ccccn1` [Example 25, Pyridine-2-carboxylic acid [(5R,7R)-2-(3-fluoro-phenyl)-1-oxo-2-aza-spiro [4.5]dec-7-yl]-amide] came in with a Ki in assay [1] of 130 nM. The Emax in assay [2] was 81 to 99%. Besides, the “activity in the Vogel Conflict Test” value in assay [4] (30 mpk (p.o.)) was “significant activity”.
With `Cc1nccc(C(=O)N[C@@H]2CCC[C@@]3(CCN(c4cc(F)cc(F)c4)C3=O)C2)n1` [Example 82, 2-Methyl-pyrimidine-4-carboxylic acid [(5R,7R)-2-(3,5-difluoro-phenyl)-1-oxo-2-aza-spiro[4.5]dec-7-yl]-amide], the Emax in assay [5] lay within 73 to 95%. Further, the “activity in the Vogel Conflict Test” value in assay [4] (10 mpk (p.o.)) is “significant activity”.
On to `Cc1nccc(N2CC[C@@]3(CCC[C@@H](NC(=O)c4cccc(F)c4)C3)C2=O)n1` [Example 147, 3-Fluoro-N-[(5R,7R)-2-(2-methyl-pyrimidin-4-yl)-1-oxo-2-aza-spiro[4.5]dec-7-yl]-benzamide], for which the Emax in assay [5] was in the range of 47 to 93%. Moreover, the “activity in the Vogel Conflict Test” value in assay [4] (3 mpk (p.o.)), in assay [4] (10 mpk (p.o.)) and in assay [4] (30 mpk (p.o.)) was “significant activity” in each case.
Regarding `CNCCC(Oc1ccc(C(F)(F)F)cc1)c1ccccc1` (stereo not shown) [fluoxetine], the “effect on anxiety- and depression-like effects of seven weeks corticosterone in the OF, NSF and FST” value in assay [6] (18 mg/kg/day ip) is “reversed the anxiety- and depression-like effects”.
For `CN(C)CCCN1c2ccccc2CCc2ccccc21` [imipramine], in assay [6] (40 mg/kg/day ip), the “effect on anxiety- and depression-like effects of seven weeks corticosterone in the OF, NSF and FST” value was “reversed the anxiety- and depression-like effects”.
